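In this assay, cells in 96-well plates receive the compound at five concentrations for 48 hours. Endpoints are linearly interpolated between the surrounding concentrations. TGI: concentration producing complete growth inhibition.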
These compounds were tested on NCI-H460 lung (assay: growth of human tumour cells (NCI), 48 h).

SMILES	TGI [µM]
CCOC(=O)c1c(CN2CCCC2)n(-c2ccccc2)c2cc(Br)c(O)cc12	32.9
Nn1c(-c2ccccc2)n[nH]c1=O	> 100
Nn1c(Nc2ccc(S(=O)(=O)Nc3ncccn3)cc2)nnc(/C=C/c2c(O)ccc3ccccc23)c1=O	69.2
Cc1cc(-c2nc3ccc(F)cc3s2)ccc1NC(=O)[C@H](C)N	6.09
C=CC1(CC/C(=C\[N+](=O)[O-])c2ccc(OC)c(OC)c2)OCC(C)(C)CO1	55
Nc1c(-c2ccc(Cl)c(Cl)c2)c2ccc([N+](=O)[O-])cc2c(=O)n1-c1nc2ccccc2s1	> 100
NS(=O)(=O)c1nnc(NC(=O)Nc2ccc(Cl)c(Cl)c2)s1	55.3
COC(=O)c1c(C)nc2c1cc(O)c1[nH]c(C)c(C)nc12	> 100
O=[N+]([O-])c1cc(C=NC23CC4CC(CC(C4)C2)C3)ccc1Cl	> 71
COc1cc(S(=O)(=O)Nc2nc(-c3ccc(N4C(=O)C(CC(=O)O)SC4c4cccs4)cc3)cs2)ccc1Cl (stereo not given)	> 100
CCCCCC1=CC(=O)C1(Cl)Cl	> 61.2
CC(=O)N(C(=O)CC(=O)N1N=C(c2ccccc2)C(N=Nc2ccccc2[N+](=O)[O-])C1=O)c1ccc(Cl)cc1 (stereo not given)	> 10
CC(=O)N1C(C(=O)NC2CCCCC2)CSC1c1ccccc1 (stereo not given)	> 100
COc1ncc(/C=C2\OC(=O)c3ccccc32)c(OC)n1	> 100
CC(=O)Nn1c(=S)[nH]c2ccccc21	> 100
C[C@]12CCC3C4=C(CCC3C1CCC2=O)C(=O)[C@H]1O[C@H]1C4=O (stereo not given in full)	23.9
CCCCOC(=O)Nc1ccc(S(=O)(=O)Nc2ccccc2Cl)cc1	40.1
Oc1[nH]c2ccccc2c1N=Nc1nc(-c2ccc(Br)cc2)cs1	65.8
CC(C)c1cc2c(cc1S(=O)(=O)O)[C@@]1(C)CCC[C@@](C)(C(=O)O)C1CC2 (stereo not given in full)	> 100

SMILES	TGI [µM]
N#CC(Cc1ccccc1)N(CCC1=CCCCC1)C(c1ccccc1)c1ccccc1 (stereo not given)	> 100
C/C(=C\CBr)CCC(Br)C(C)(C)Br (stereo not given)	> 100
C#CCn1c(=O)c2ccccc2n(CC#C)c1=O	> 10
O=C1CCC2(c3ccc(Cl)cc3)Nc3ccncc3N12 (stereo not given)	> 10
[N-]=[N+]=NC(c1ccccc1)(c1ccccc1)c1ccccc1	33
CC(=O)c1c2c(c3ccccc3c1O)O[C@@H]1OCC[C@H]21	> 100
C(=C(c1ccc(OC2CCCCO2)cc1)c1ccc(OC2CCCCO2)cc1)c1ccccc1 (stereo not given)	1.79
Cc1ccc(NC(=O)c2ccc(OP(=O)(O)Nc3ccc(C)cc3)cc2)cc1	> 100
Cc1ccnc(NS(=O)(=O)c2ccc(N=[N+]=[N-])cc2)n1	> 100
Cc1ccccc1C(=N)c1ccccc1Cc1cccc2ccccc12	38.6
COc1ccc(-c2[nH]c3c4c(nc5c(c24)C(=O)CC(C)(C)C5)CC(C)(C)C3)cc1	> 100
Cc1ccccc1OC(C)C(=O)NN1C(=O)CSC1c1ccccc1 (stereo not given)	> 100
CC(C)=CCC[C@@H](C)c1c(O)c(O)c(C)c2nccnc12	> 100
S=C(N/N=C(/c1ccccc1)c1ccccn1)N(Cc1ccccn1)Cc1ccccn1	4.7
O=c1[nH]c(=S)[nH]c2c1C(c1ccc([N+](=O)[O-])cc1)c1c([nH]c(=S)[nH]c1=O)O2	> 100
Cn1c(=O)c2c(nc3n2CC(C(=O)O)N3)n(C)c1=O (stereo not given)	> 100
Cc1oc2c(cc(O)c3cc(O)ccc32)c2cccc1-2	> 100
O=C(OCc1ccccc1)N1CCNCCN(C(=O)OCc2ccccc2)CCNCC1	49.4

These compounds were tested on KM12 colon (assay: growth of human tumour cells (NCI), 48 h).

SMILES	TGI [µM]
CCOC(=O)c1c(CN2CCCC2)n(-c2ccccc2)c2cc(Br)c(O)cc12	32.2
Nn1c(-c2ccccc2)n[nH]c1=O	> 100
Cc1cc(-c2nc3ccc(F)cc3s2)ccc1NC(=O)[C@H](C)N	15.3
C=CC1(CC/C(=C\[N+](=O)[O-])c2ccc(OC)c(OC)c2)OCC(C)(C)CO1	47.2
Nc1c(-c2ccc(Cl)c(Cl)c2)c2ccc([N+](=O)[O-])cc2c(=O)n1-c1nc2ccccc2s1	> 100
NS(=O)(=O)c1nnc(NC(=O)Nc2ccc(Cl)c(Cl)c2)s1	92
COC(=O)c1c(C)nc2c1cc(O)c1[nH]c(C)c(C)nc12	> 100
O=[N+]([O-])c1cc(C=NC23CC4CC(CC(C4)C2)C3)ccc1Cl	55
COc1cc(S(=O)(=O)Nc2nc(-c3ccc(N4C(=O)C(CC(=O)O)SC4c4cccs4)cc3)cs2)ccc1Cl (stereo not given)	> 100
CCCCCC1=CC(=O)C1(Cl)Cl	27.9
CC(=O)N(C(=O)CC(=O)N1N=C(c2ccccc2)C(N=Nc2ccccc2[N+](=O)[O-])C1=O)c1ccc(Cl)cc1 (stereo not given)	> 10
CC(=O)N1C(C(=O)NC2CCCCC2)CSC1c1ccccc1 (stereo not given)	> 100
Oc1ccccc1CNCc1nc2ccccc2[nH]1	> 100
COc1ncc(/C=C2\OC(=O)c3ccccc32)c(OC)n1	> 100
CC(=O)Nn1c(=S)[nH]c2ccccc21	> 100
C[C@]12CCC3C4=C(CCC3C1CCC2=O)C(=O)[C@H]1O[C@H]1C4=O (stereo not given in full)	18.3
CCCCOC(=O)Nc1ccc(S(=O)(=O)Nc2ccccc2Cl)cc1	62.9
Oc1[nH]c2ccccc2c1N=Nc1nc(-c2ccc(Br)cc2)cs1	> 100
CC(C)c1cc2c(cc1S(=O)(=O)O)[C@@]1(C)CCC[C@@](C)(C(=O)O)C1CC2 (stereo not given in full)	> 100
N#CC(Cc1ccccc1)N(CCC1=CCCCC1)C(c1ccccc1)c1ccccc1 (stereo not given)	> 100
C/C(=C\CBr)CCC(Br)C(C)(C)Br (stereo not given)	> 100

SMILES	TGI [µM]
C#CCn1c(=O)c2ccccc2n(CC#C)c1=O	> 10
O=C1CCC2(c3ccc(Cl)cc3)Nc3ccncc3N12 (stereo not given)	> 10
[N-]=[N+]=NC(c1ccccc1)(c1ccccc1)c1ccccc1	46.8
CC(=O)c1c2c(c3ccccc3c1O)O[C@@H]1OCC[C@H]21	> 100
C(=C(c1ccc(OC2CCCCO2)cc1)c1ccc(OC2CCCCO2)cc1)c1ccccc1 (stereo not given)	0.677
C[C@]12CC[C@H](O)CC1=CC[C@@H]1[C@@H]2CC[C@]2(C)C(=N/N)/C(=N\O)C[C@@H]12	> 100
O=C(c1ccccn1)C1(N2CCCCC2)CCCCC1	> 100
Cc1ccc(NC(=O)c2ccc(OP(=O)(O)Nc3ccc(C)cc3)cc2)cc1	> 100
Cc1ccnc(NS(=O)(=O)c2ccc(N=[N+]=[N-])cc2)n1	> 100
Cc1ccccc1C(=N)c1ccccc1Cc1cccc2ccccc12	41.9
COc1ccc(-c2[nH]c3c4c(nc5c(c24)C(=O)CC(C)(C)C5)CC(C)(C)C3)cc1	> 100
Cc1ccccc1OC(C)C(=O)NN1C(=O)CSC1c1ccccc1 (stereo not given)	> 100
CC(C)=CCC[C@@H](C)c1c(O)c(O)c(C)c2nccnc12	> 72
S=C(N/N=C(/c1ccccc1)c1ccccn1)N(Cc1ccccn1)Cc1ccccn1	2.31
O=c1[nH]c(=S)[nH]c2c1C(c1ccc([N+](=O)[O-])cc1)c1c([nH]c(=S)[nH]c1=O)O2	> 100
Cn1c(=O)c2c(nc3n2CC(C(=O)O)N3)n(C)c1=O (stereo not given)	> 100
Cc1oc2c(cc(O)c3cc(O)ccc32)c2cccc1-2	> 100
NC(N)=Nc1ccc(CC(N)NCC(=O)O)cc1 (stereo not given)	> 25
O=C(OCc1ccccc1)N1CCNCCN(C(=O)OCc2ccccc2)CCNCC1	66.1
COP(=O)(OC)C1=c2c(C)noc2=C2C=COC2C1=O (stereo not given)	> 100
N#CC(NCc1cccc(CNC(C#N)c2ccccc2)c1)c1ccccc1 (stereo not given)	56.6

Each compound was assayed on MDA-MB-435 (assay: growth of human tumour cells (NCI), 48 h).

SMILES	TGI [µM]
CCOC(=O)c1c(CN2CCCC2)n(-c2ccccc2)c2cc(Br)c(O)cc12	33.2
Nn1c(-c2ccccc2)n[nH]c1=O	> 100
Nn1c(Nc2ccc(S(=O)(=O)Nc3ncccn3)cc2)nnc(/C=C/c2c(O)ccc3ccccc23)c1=O	69.4
Cc1cc(-c2nc3ccc(F)cc3s2)ccc1NC(=O)[C@H](C)N	5.82
C=CC1(CC/C(=C\[N+](=O)[O-])c2ccc(OC)c(OC)c2)OCC(C)(C)CO1	56.3
Nc1c(-c2ccc(Cl)c(Cl)c2)c2ccc([N+](=O)[O-])cc2c(=O)n1-c1nc2ccccc2s1	> 100
NS(=O)(=O)c1nnc(NC(=O)Nc2ccc(Cl)c(Cl)c2)s1	50
COC(=O)c1c(C)nc2c1cc(O)c1[nH]c(C)c(C)nc12	> 100
O=[N+]([O-])c1cc(C=NC23CC4CC(CC(C4)C2)C3)ccc1Cl	42.2
COc1cc(S(=O)(=O)Nc2nc(-c3ccc(N4C(=O)C(CC(=O)O)SC4c4cccs4)cc3)cs2)ccc1Cl (stereo not given)	> 100
CCCCCC1=CC(=O)C1(Cl)Cl	33
CC(=O)N(C(=O)CC(=O)N1N=C(c2ccccc2)C(N=Nc2ccccc2[N+](=O)[O-])C1=O)c1ccc(Cl)cc1 (stereo not given)	> 10
CC(=O)N1C(C(=O)NC2CCCCC2)CSC1c1ccccc1 (stereo not given)	> 100
Oc1ccccc1CNCc1nc2ccccc2[nH]1	> 100
COc1ncc(/C=C2\OC(=O)c3ccccc32)c(OC)n1	> 100
CC(=O)Nn1c(=S)[nH]c2ccccc21	> 100
C[C@]12CCC3C4=C(CCC3C1CCC2=O)C(=O)[C@H]1O[C@H]1C4=O (stereo not given in full)	24.9
CCCCOC(=O)Nc1ccc(S(=O)(=O)Nc2ccccc2Cl)cc1	36
Oc1[nH]c2ccccc2c1N=Nc1nc(-c2ccc(Br)cc2)cs1	> 100
CC(C)c1cc2c(cc1S(=O)(=O)O)[C@@]1(C)CCC[C@@](C)(C(=O)O)C1CC2 (stereo not given in full)	> 100
N#CC(Cc1ccccc1)N(CCC1=CCCCC1)C(c1ccccc1)c1ccccc1 (stereo not given)	> 100
C/C(=C\CBr)CCC(Br)C(C)(C)Br (stereo not given)	> 100
C#CCn1c(=O)c2ccccc2n(CC#C)c1=O	> 10
O=C1CCC2(c3ccc(Cl)cc3)Nc3ccncc3N12 (stereo not given)	> 10
[N-]=[N+]=NC(c1ccccc1)(c1ccccc1)c1ccccc1	44
CC(=O)c1c2c(c3ccccc3c1O)O[C@@H]1OCC[C@H]21	> 100
